Paper PMC10052652 (Molecules, 2023)
Values joined by “and” are separate entries in the source; they are usually repeats but may differ in a detail not shown here. Identical values can stand only once. Like-named read-outs stand apart in the source and are kept apart here.

Experiments:
MCF7 cells = assay: Cytotoxic activity, MTT assay, MCF7; format: cell-based, human
Method: Optical density was measured at 540 nm. All tests were established in triplicate.

α-amylase = biological target: T1, α-amylase (Homo sapiens, UniProt P04746); assay: Anti-α-amylase activity (starch/DNS); details: for Anti α-Amylase %: at 100 µM
T1 sequence (P04746 16-511): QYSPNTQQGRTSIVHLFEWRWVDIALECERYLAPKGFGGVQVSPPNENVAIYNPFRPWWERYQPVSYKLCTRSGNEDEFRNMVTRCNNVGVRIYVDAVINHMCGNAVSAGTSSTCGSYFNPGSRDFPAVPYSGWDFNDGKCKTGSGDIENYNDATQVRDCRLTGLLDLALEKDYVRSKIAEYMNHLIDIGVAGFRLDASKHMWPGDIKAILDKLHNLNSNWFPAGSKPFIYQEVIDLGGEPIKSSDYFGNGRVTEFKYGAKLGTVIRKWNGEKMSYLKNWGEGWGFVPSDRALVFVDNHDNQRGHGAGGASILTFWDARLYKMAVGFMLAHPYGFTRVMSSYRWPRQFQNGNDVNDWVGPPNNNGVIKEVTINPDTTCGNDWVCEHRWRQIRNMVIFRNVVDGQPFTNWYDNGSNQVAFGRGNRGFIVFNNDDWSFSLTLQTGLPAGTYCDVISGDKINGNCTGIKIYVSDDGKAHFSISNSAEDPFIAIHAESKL
Method: The α-amylase inhibitory activity (%) value was defined as the percentage decrease in the maltose production rate over the control. […] After 15 min, this mixture was removed from the water bath and diluted with 900 µL of distilled water. The anti-α-amylase activity was determined by measuring the absorbance at 540 nm. Blank incubations were determined as the absorbance produced by samples where the enzyme was replaced with a buffer solution. […] The IC50 values were calculated from the mean values of the percentage of α--amylase inhibition data, determined in triplicate.

[1] = biological target: T2, acetylcholinesterase (AChE) (Homo sapiens, UniProt P22303); assay: biochemical
T2 sequence (P22303 32-614, species assumed): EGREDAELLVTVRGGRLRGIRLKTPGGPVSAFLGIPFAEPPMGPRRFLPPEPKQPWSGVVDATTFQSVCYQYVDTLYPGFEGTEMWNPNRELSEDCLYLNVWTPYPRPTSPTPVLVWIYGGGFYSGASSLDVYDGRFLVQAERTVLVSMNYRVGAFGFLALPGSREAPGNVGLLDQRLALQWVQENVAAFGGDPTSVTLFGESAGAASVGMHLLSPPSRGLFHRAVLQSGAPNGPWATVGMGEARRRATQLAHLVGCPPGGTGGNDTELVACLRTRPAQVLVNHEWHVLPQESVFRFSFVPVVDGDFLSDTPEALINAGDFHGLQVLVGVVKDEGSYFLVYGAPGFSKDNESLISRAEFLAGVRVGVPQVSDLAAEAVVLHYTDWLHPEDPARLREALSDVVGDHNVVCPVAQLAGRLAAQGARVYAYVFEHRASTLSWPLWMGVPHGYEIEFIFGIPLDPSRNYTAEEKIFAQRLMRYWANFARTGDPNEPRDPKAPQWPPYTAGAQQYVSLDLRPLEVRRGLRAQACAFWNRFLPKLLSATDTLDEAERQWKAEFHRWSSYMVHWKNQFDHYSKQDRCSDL
Method: The enzymatic activity was assessed via a modified colorimetric Ellman′s method. First, 50 µL of Tris-HCl buffer (pH 8), 25µL of a buffer solution of the sample (50 µg/mL), and 25 µL of an acetylcholinesterase (AChE) enzyme solution containing 2.8 U/mL were mixed. A reaction was then initiated via the addition of 125 µL of 3 mM […]. After incubation for 15 min at 25 °C, 25 µL of a solution of iodide acetylthiocholine15 mM was added to a 96-well microplate. […] Inhibition (%) was calculated in the following way: Inhibition (%) = [(A control − A sample)/A control] × 100, where (A sample) is the absorbance of the molecule containing the reaction and (A control) is the absorbance of the reaction control. Tests were carried out in triplicate.

OVCAR-3 cells = assay: Cytotoxic activity, MTT assay, OVCAR-3; format: cell-based; details: Homo sapiens, OVCAR-3, 72 h, read-out: IC50 OVCAR-3
Method: (§1) The cancer cell lines used in this study were HCT116 (colorectal carcinoma), IGROV1 (ovarian cancer), OVCAR3 (ovarian cancer), and MCF7 (mammary gland/breast cancer). […] Cell lines were maintained in culture and were incubated at 37 °C in an incubator with 5% CO2 in a humidified atmosphere. All tests were established at 80% of confluence, and viability was estimated with a trypan blue exclusion assay.
(§2) The cytotoxic activities of molecules against cancer cell lines were evaluated using an MTT assay. The MTT colorimetric assay was performed using 96-well plates. Cells were seeded in a 96-well plate, at a concentration of 10 × 10^3 cells/well for HCT116 and 12 × 10^3 cells/well for MCF7, IGROV1, and OVAR. Adherent cells were dispatched and incubated at 37 °C overnight in a 5% CO2-enriched atmosphere. […] After that, the medium was removed, and cells were treated with 50 µL of 3-(4,5-dimethylthazolk-2-yl)-2,5-diphenyl tetrazolium bromide (MTT) solution (3 mg/mL in PBS) at 37 °C for 20 to 40 min. To dissolve the […], we added 80 µL of 100% DMSO. Optical density was measured at 540 nm. All tests were established in triplicate. […]

[2] = biological target: T3, superoxide dismutase (SOD) (Homo sapiens, UniProt P00441); format: biochemical; details: at 100 µM
T3 sequence (P00441 whole entry): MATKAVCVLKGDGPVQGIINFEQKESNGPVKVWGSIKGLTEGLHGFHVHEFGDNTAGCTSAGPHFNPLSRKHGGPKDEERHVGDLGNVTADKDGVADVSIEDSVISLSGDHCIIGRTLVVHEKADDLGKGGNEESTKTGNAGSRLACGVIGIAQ

HCT116 cells = assay: Cytotoxic activity, MTT assay, HCT116; format: cell-based, human
Method: as §1, §2

[3] = biological target: T2, acetylcholinesterase (AChE); format: biochemical; details: at 100 µM
SKOV-3 cells = assay: Cytotoxic activity, MTT assay, SKOV-3; format: cell-based, human
[4] = biological target: T3, superoxide dismutase (SOD); assay: biochemical
Method: Pyrogallol auto-oxidation due to oxygen in the air can be inhibited by an enzyme that is naturally present in the body: superoxide dismutase (SOD). Furthermore, variations in the pyrogallol auto-oxidation rate in the presence of SOD were evaluated. Tests were carried out in triplicate. The objective was to find an inhibitor of the auto-oxidation of pyrogallol in the presence of a SOD enzyme solution. Samples were tested at a concentration of 50 µg/mL, followed by incubation for 4 min at 25 °C. […] The self-oxidation of pyrogallol was evaluated in the absence of the enzyme. For this, 30 µL of pyrogallol was added to 120 µL of tris buffer (in place of the SOD) (pH 8.5), then followed by the same steps of incubating a positive control (without the molecule); this was performed in the presence of 5% of DMSO to evaluate the percentage of SOD inhibition activity on the auto-oxidation of pyrogallol.

[5] = DPPH radical scavenging assay; details: for DPPH Assay %: at 100 µM
Method: DPPH• (1-1-diphenyl 2-picryl hydrazyl) assay
This method is based on the spectrophotometric assay using the stable radical, DPPH•, as a reagent. First, 20 µL of each sample (4 mg/mL) was mixed with 180 µL of 0.1 mM DPPH• in methanol, in plates, after an incubation of 25 min in the dark. Absorbance was measured at 517 nm. Ascorbic acid was used as the reference compound. The radical-scavenging activities of molecules, expressed as a percentage inhibition of DPPH•, were calculated according to the following formula: Inhibition (%) = [(A control − A sample)/A control] × 100 where A is the absorbance determined at 517 nm. The absorbance of the solvent and DPPH• radical without the molecule was measured as the control.

[6] = Homo sapiens, HCT-116, 72 h, read-out: IC50 HCT116, MTT, 72 h
[7] = read-out: IC50 HCT116, MTT, 72 h
[8] = Homo sapiens, SK-OV-3, 72 h, read-out: IC50 SKOV-3, MTT, 72 h

Row | Compound | IC50 (MCF7 cells; Homo sapiens, MCF7, 72 h) [µM] | IC50 (α-amylase) [µM] | Anti α-Amylase % (α-amylase) [%] | IC50 [1] [µM] | IC50 (OVCAR-3 cells) [µM] | Anti SOD % [2] | IC50 (HCT116 cells; [6]) [µM] | IC50 (HCT116 cells; [7]) [µM] | Anti ACHE % [3] [%] | IC50 (SKOV-3 cells; [8]) [µM] | IC50 ([4]; Anti SOD IC50) [µM] | IC50 [5] [µM] | DPPH Assay % [5] | IC50 ([4]; read-out: Anti SOD IC50) [µM] | IC50 ([1]; read-out: Anti ACHE IC50) [µM] | IC50 (SKOV-3 cells; read-out: IC50 SKOV-3, MTT, 72 h) [µM] | IC50 (MCF7 cells; 72 h) [µM]
1 | O=c1cc(-c2ccccc2)oc2cc(O)cc(O)c12 [Molecule M1, 5,7-dihydroxyflavone] | 35.9 ± 0.8 | 36.6 ± 0.2 | 59.7 ± 2.0 | > 100 | > 50 | 41.5 ± 1.8% | > 100 | > 50 | 45.8 ± 1.3 | > 50 | > 100 | > 100 | not active | – | – | – | –
2 | COc1ccc(-c2oc3c(CC=C(C)C)c(O[C@@H]4O[C@H](CO)[C@@H](O)[C@H](O)[C@H]4O)cc(O)c3c(=O)c2O[C@@H]2O[C@@H](C)[C@H](O)[C@@H](O)[C@H]2O)cc1 [Molecule M2, Icariin] | > 100 | 14.1 ± 2.1 | 58.1 ± 2.2 | > 100 | > 50 | 61.7 ± 1.1% | > 50 | – | 19.3 ± 0.3 | > 50 | – | > 100 | – | > 50 | – | – | –
3 | O=c1cc(-c2ccccc2)oc2ccc(O)cc12 [Molecule M3, 6-hydroxyflavone] | > 50 | 10.9 ± 0.1 | 90.3 ± 3.2 | – | 44.7 ± 1.2 | 54.8 ± 3.2% | > 100 | > 50 | – | > 100 | – | > 100 | – | > 50 | > 100 | > 50 | –
4 | O=c1cc(-c2ccccc2)oc2cccc(O)c12 [Molecule M4, 5-hydroxyflavone] | > 50 | 37.9 ± 0.8 | 58.4 ± 1.4 | > 100 | > 50 | 25.9 ± 2.5% | > 100 | > 50 | – | > 50 | > 100 | > 100 | – | – | – | – | > 100
5 | O=c1cc(-c2ccccc2)oc2cc(O)ccc12 [Molecule M5, 7-hydroxyflavone] | > 50 | 1.2 ± 0.1 | 90.3 ± 3.2 | > 100 | > 50 | 74.3 ± 3.1% and 74.3 ± 3.02% | > 100 | > 50 | – | > 50 | – | > 100 | – | 36.5 ± 1.2 | – | – | –
6 | O=c1cc(-c2ccccc2)oc2cc(O)c(O)c(O)c12 [Molecule M7, 5,6,7-trihydroxyflavone] | 33.1 ± 1.4 | 3.4 ± 0.1 | 96.9 ± 1.7 | 10.2 ± 3 | > 50 | 71.2 ± 2.3% | 38.5 ± 1.3 | – | 62.0 ± 1.9 | 15.6 ± 0.1 | 36.5 ± 1.2 | 5.2 ± 0.2 | 96.4 ± 0.1% | 31.5 ± 0.5 | – | – | –
7 | O=c1cc(-c2cc(O)cc(O)c2)oc2ccccc12 [Molecule M8, 3′,5′-dihydroxyflavone] | 40.4 ± 0.7 | 14.9 ± 0.3 | 104.8 ± 3.5 | – | > 50 | 52.3 ± 0.9% | 33.1 ± 0.1 | – | 49.3 ± 2.2 | > 50 | – | > 100 | 20.3 ± 4.1% | > 50 | > 100 | – | –
8 | O=c1cc(-c2cccc(O)c2)oc2ccc3ccccc3c12 [Molecule M9, 3′-hydroxy-b-naphthoflavone] | > 50 | 2 ± 0.2 | 86.6 ± 2.3 | – | > 50 | 19.8 ± 2.9% | > 50 | – | 47.9 ± 4.0 | > 50 | – | > 100 | – | > 100 | > 100 | – | –
9 | O=c1cc(-c2cccc(O)c2)oc2cc(O)ccc12 [Molecule M13, 7,3′-dihydroxyflavone] | 38.5 ± 1.2 | 1.4 ± 0.1 | 91.7 ± 4.9 | – | > 50 | 56.6 ± 1.7% | 39.3 ± 0.8 | – | 63.9 ± 3.3 | 42.1 ± 0.7 | – | > 100 | – | > 50 | > 50 | – | –
10 | COc1cc(-c2cc(=O)c3ccc4c(O)cccc4c3o2)cc(OC)c1OC [Molecule M18, 7-hydroxy-3′,4′,5′-trimethoxy-α-naphthoflavone] | > 50 | > 100 | – | – | > 50 | 32.7 ± 3.9% | 45 ± 0.9 | – | 43.3 ± 1.8 | 37.3 ± 1 | – | > 100 | 40.8 ± 0.6% | > 100 | > 100 | – | –
